Patent US20220185802A1, “BENZOXAZINE MONOMERS AND POLYMERIC COATINGS” (LUXEMBOURG INSTITUTE OF SCIENCE AND TECHNOLOGY (LIST), priority 2019, published 2022)

Legend:
THP-1 cells = test: Pro-inflammatory activity of coated samples (FIG. 20); format: cell-based, human; details: samples coated with film derived from the compound (monomers in combination with P-e; P-e alone)
Excerpt: (§1) In human, inflammation can arise through the activation of nuclear factor-kappaB (NF-κB), a pivotal transcription factor in chronic inflammatory diseases, inducing the expression of numerous inflammation related-genes such as those for tumor necrosis factor α (TNFα) and cytokines such as IL-1β, IL-10, and IL-6 or IL-8 (Medzhitov R., Nature, 2008, 454, 428-435). In the present invention, an inflammation-relevant human cell line, i.e. the monocytes THP-1 cells, are used to evaluate the potential of the coatings to reduce the inflammation. Their cytotoxicity towards are first evaluated using the resazurin reduction test (O'Brien J. et al., Eur. J. Biochem., 2000, 267, 5421-5426.) General anti-inflammatory properties are then determined using THP-1 cells transfected with a reporter plasmid expressing the secreted alkaline phosphatase (SEAP) gene under the control of an NF-κB-inducible promoter. TNFα are used as an inflammation inducer and the data are expressed as percentage inhibition of NF-κB activation. In addition, the effects of the most promising monomers is further evaluated on inflammation-related genes by real time qPCR using THP-1 cells differentiated into macrophages (Andre C. M. et al., J. Agric. Food. Chem, 2013, 61, 2773-2779) and IL-1β, IL-10, IL-6, and COX-2 as markers (Kaulmann A. et al., Mol. Nutr. Food Res., 2016, 60, 992-1005).

NF-κB activation = test: Inflammation inhibitory activity, NF-κB-inducible SEAP reporter in THP-1 cells with TNFα as inducer; format: cell-based, human; details: samples coated with polymer formed from the monomer in combination with P-e, film about 120 μm
Excerpt: as §1

Structure (SMILES)	pro-inflammatory properties (THP-1 cells)	inhibition of the inflammation (NF-κB activation; TNFα as inducer) [%]	anti-inflammatory effect (NF-κB activation; in comparison with P-e or 13)
c1ccc2c(c1)CN(CCN1COc3ccccc3C1)CO2 [P-e, reference compound]	only the sample coated with the film derived from compound 13 shows a trend	–	–
CC=Cc1cc2c(c(OC)c1)OCN(Cc1ccco1)C2 [Monomer 12]	only the sample coated with the film derived from compound 13 shows a trend	~20	strong anti-inflammatory effect
